The values below come from patent US6964856B2, “Animal models and methods for sepsis” (priority 1999, dated 2005).

The assay concerns luminescent Pseudomonas aeruginosa. The assay can be described thus: LD50 of luminescent Pseudomonas aeruginosa in mice, effect of anesthesia or adjuvant on virulence. Particulars: Ketamine-sedated mice; non-anesthetized mice: approximately 2.5×10^6 CFU. It counts as in vivo. An excerpt:
One of the factors typically determined in the calibration process is a suitable dose of pathogen for the selected model system of sepsis. This dose is preferably based on the LD50 of the pathogen in the particular animal model of sepsis being used. The LD50, or “Lethal Dose 50”, is a measure for quantifying the effects of a perturbation (e.g., a test compound, procedure, or bacterial infection) on a biological system. It represents the 50% mortality point—that is, the concentration or level of a particular perturbation at which half of the animals die by the end of the experiment.
The LD50 may change depending on the experimental parameters. The measure is therefore expressed as an LD50 for a given experimental system. By way of example, it was discovered in the course of experiments performed in support of the present invention that the type of anesthesia used to prepare the animals for imaging can have a significant effect on the LD50. Specifically, it was discovered that anesthesia induced by injectable Ketamine may potentiate the virulence of some pathogens.
For example, it was found during experiments performed in support of the present invention that pathogen virulence is boosted by administration of 5% (by volume) hog gastric mucin to the host. […]

In the case of `CNC1(c2ccccc2Cl)CCCCC1=O` (stereo not shown) [Ketamine], the “LD50 of luminescent Pseudomonas aeruginosa” value is on record as ~4.6×10^5 CFU.
